Data on two compounds can be found in US20200086049A1, “Kit For Treating or Relieving Pain at Incision Site Following Surgical Procedure” (GENEWEL CO., LTD., priority 2017, published 2020).

The nature of this series: precipitation test for drug-containing mixture solutions. The format is physicochemical. The settings on record: mixture solution containing crosslinked temperature-responsive viscous solution (DDK Gel: poloxamer and crosslinked alginate), FIG. 7. The text has this: In FIG. 7, DDK Gel means a gel composed of poloxamer and crosslinked alginate.

Regarding `CC(C)Cc1ccc(C(C)C(=O)O)cc1` (centres unmarked) [ibuprofen], the precipitate formation result is given as “formed a precipitate”. For the compound gentamicin, the precipitate formation entry is on record as “sodium alginate was precipitated”.
